Source: patent US11419909B2, “Compositions and methods for maintaining or enhancing homeostasis or function of female lower reproductive tract” (FAIRHAVEN HEALTH, LLC, priority 2016, dated 2022)

Details: plant derived raw materials

SMILES: O=C[C@H](O)[C@@H](O)[C@H](O)CO [D-Xylose source 1, D-Xylose]
- Endotoxin Level: <0.07 EU/mg
